The structures appear in SMILES notation. Counter-ions that a name gives are not always drawn.

The nature of the assay: Growth inhibition of human PC3 cells by colorimetric MTT assay. Format: functional. The note with it: PC-3. For orientation: Tetrazolium dyes change colour on reduction, which living cells bring about.
Compound `C=CC(=C)[C@H](C[C@H]1C(=C)CC[C@@H]2[C@]1(C)CCC[C@@]2(C)C(=O)O)OO` had a concentration for 50% growth inhibition (GI50) of over 100 µM. `C=CC(=C)[C@@H](C[C@H]1C(=C)CC[C@@H]2[C@]1(C)CCC[C@@]2(C)C(=O)O)OO`: the 50% growth inhibitory concentration (GI50) was 38 µM. That is a double-digit micromolar value. With `C=CC(=C)CC[C@@H]1[C@@]2(C)CCC[C@](C)(COC(=O)/C=C/c3ccccc3)[C@@H]2CC[C@@]1(C)O` the figure was 10.6 µM; with `C=CC(=C)[C@H](C[C@H]1C(=C)CC[C@H]2[C@](C)(CO)CCC[C@]12C)OO`, 50.9 µM; with `C=C/C(C)=C/[C@@H](OC(C)=O)[C@H]1C(=C)CC[C@@H]2[C@]1(C)CCC[C@@]2(C)C(=O)OC`, 58.3 µM.

Compound `C=C/C(C)=C/C[C@H]1C(=C)CC[C@H]2[C@](C)(CO)CCC[C@]12C` had a GI50 of 35 µM. In the case of `COc1cccc2c1C(=O)c1c(O)c3c(c(O)c1C2=O)C[C@@](O)(C(=O)CO)C[C@@H]3O[C@H]1C[C@H](N)[C@H](O)[C@H](C)O1` [DOXORUBICIN HYDROCHLORIDE], the GI50 stood at 1.1 µM. With `COc1ccc(-c2cc(=O)c3c(O)cc(O)c(-c4cc(-c5cc(=O)c6c(O)cc(O)cc6o5)ccc4O)c3o2)cc1` [PODOCARPUSFLAVONE A], the GI50 was over 100 µM.

Turning to `COc1cc(O)c2c(=O)cc(-c3ccc(O)c(-c4c(O)cc(O)c5c(=O)cc(-c6ccc(O)cc6)oc45)c3)oc2c1` [SEQUOIAFLAVONE], it took 43.3 µM to inhibit growth by half (GI50). The compound `C=C/C(C)=C/[C@@H](OC(C)=O)[C@H]1C(=C)CC[C@@H]2[C@]1(C)CCC[C@@]2(C)C(=O)O` registered a GI50 of 57.2 µM. `C=CC(=C)CC[C@@H]1[C@@]2(C)CCC[C@](C)(COC(=O)/C=C\c3ccccc3)[C@@H]2CC[C@@]1(C)O`: the GI50 is over 100 µM. As to `Cc1cc2c(C(C)C)ccc(C)c2cc1O`, growth was halved (GI50) at 54 µM.

The compound `CC(C)c1cc2c3c(c1O)O[C@@H]1CCC(C)(C)[C@H](CC2)[C@@]31C` returned a GI50 of 27.4 µM.

The compound `C=CC(=C)[C@@H](C[C@H]1C(=C)CC[C@H]2[C@](C)(CO)CCC[C@]12C)OO` displayed a GI50 of 34.4 µM. Regarding `C=C/C(C)=C/C[C@H]1C(=C)CC[C@@H]2[C@]1(C)CCC[C@@]2(C)C(=O)O`, the concentration for 50% growth inhibition (GI50) was over 100 µM.

In general, GI50 refers to the concentration at which growth is held to half of that of the control.

The record behind these values is ChEMBL document CHEMBL3399964, “Nine new diterpenes from the leaves of plantation-grown Cunninghamia lanceolata” (2015).
